Columns and labels:
[1] = Systemic cytokine release in healthy mice after tail vein injection; format: in vivo; details: healthy Balb/c mice, 10 nmol tail vein, 1 hour or 1.5 hours after treatment
From the text: Female Balb/c mice were purchased from Charles Rivers, housed in a sterile environment on a standard 12-hour light-dark cycle, and maintained on a folate-deficient diet. All animal procedures were approved by the Purdue Animal Care and Use Committee in accordance with National Institutes of Health guidelines.
Healthy mice were tail vein injected with 10 nmol Compound A (TLR7-1) or Compound 1 (TLR7-1A), and peripheral blood was collected at indicated time points after drug injection. (FIGS. 3C and 3D). The effect of drug on plasma levels of IL-6 (FIG. 3C), and tumor necrosis factor alpha (TNF-α) (FIG. 3D) was determined at 1 hour or 1.5 hours after treatment. Both Compounds A and 1 stimulated systemic cytokine release in healthy mice.

[2] = test system: human primary monocyte derived M2-macrophages; experiment: Cytokine induction in human primary monocyte derived M2-macrophages; format: cell-based; details: 48 hours; for induction of interleukin-6 (IL-6): compared to parent compound TLR7-1, FIG. 3A; for induction of C-X-C motif chemokine ligand 10 (CXCL-10): compared to parent compound TLR7-1, FIG. 3B; for polarization of M2 macrophages to M1 macrophages: shown by increased M1 markers IL-6 and CXCL10
[3] = test system: human peripheral blood mononuclear cells (PBMCs); experiment: IL-6 production in human PBMCs treated with TLR7 agonists (ELISA); format: cell-based; details: 24 hours, compared to control Compound A (TLR7-1), FIG. 2
Procedure: To evaluate the efficacy of TLR-7 agonists, Compounds 1 (TLR7-1A), 2 (TLR7-1B) and 3 (TLR7-1C) were treated with human peripheral blood mononuclear cells (PBMCs) for 24 hours and cytokine production was thereafter assessed. Human PBMCs were isolated from healthy donors by density gradient centrifugation following standard procedure. 18 mL of blood were diluted with 2% fetal bovine serum (FBS) in phosphate-buffered saline (PBS) (1:1 dilution) and transferred slowly into a 50 mL SepMate™ PBMC isolation tube containing 12 mL of Ficoll-Paque®. The tube was centrifuged at 1200 g for 10 minutes and PBMCs were transferred into a fresh 50 mL tube.
PBMCs were washed with 2×50 mL of 2% FBS in PBS and plated in 96 well plate at a density of 2×10^5 cells/200 μL RPMI medium. This was treated with different concentrations of TLR7 agonist for 24 hours.
Compound A (TLR7-1) was used as control. Cell culture supernatants were isolated and cytokine levels were calculated using an enzyme-linked immunosorbent assay (ELISA) kit (FIG. 2).

[4] = test system: mouse bone marrow-derived M2-macrophages; experiment: Macrophage polarization in mouse bone marrow-derived M2 macrophages (ELISA); format: cell-based; details: 48 hours
Procedure: Bone marrow cells were isolated from tibias and femurs of male C57BL/6 mice and were differentiated to macrophages with mouse M-CSF (20 ng/mL). The macrophages were then polarized to M2 phenotype with 20 ng/mL of […] for 48 hours. Interferon-γ (IFN-γ), interleukin-4 (IL-4), and interleukin-13 (IL-13) were obtained from Biolgend (San Diego, Calif.). Lipopolysaccharide (LPS) was purchased from Sigma-Aldrich (St. Louis, Mo.).
The resulting M2 macrophages were then incubated with varying concentrations of Resiquimod, GSK2245035, Compound 1, Compound 2, and Compound 3 for 48 hours. Supernatant was harvested and cytokines were analyzed using ELISA. (Resiquimod and GSK2245035 are known TLR7 agonists.)

[5] = test system: human PBMC-derived M2 macrophages; experiment: Surface markers during macrophage polarization (flow cytometry); format: cell-based; details: 48 hours
Procedure: Human PMBC-derived M2 macrophages were treated with different concentrations of folate-TLR7 agonists (e.g., Compound 4) for 48 hours, and macrophage cells were detached using Accutase cell detachment Solution (Biolegend, San Diego, Calif.; #423201) and gently lifted with a cell scraper. Cells were washed with PBS and nonspecific binding was blocked by incubation with Fc receptor blocking solution (Biolegend, San Diego, Calif.) at room temperature for 10 minutes. The resulting single cell suspensions were stained for M2 macrophage marker CD206, and M1 macrophage markers CD80 and CD40. All the samples were then analyzed by flow cytometry.

4T1 metastatic tumor = 4T1 metastatic tumor model, lung metastatic colony formation (6-thioguanine assay); format: in vivo; details: Balb/c mice, 50 nmole/kg intravenously once/week
Procedure: Additional 4T1 solid tumor metastatic studies were also performed. There, lung metastatic colony formation assay was carried out following the reported procedure (Cresswell et al., Folate receptor beta designates immunosuppressive tumor-associated myeloid cells that can be reprogrammed with folate-targeted drugs, Cancer Research 2021, 81(3), 671-684). 6-8 weeks old Balb/c mice were implanted with 50,000 4T1 cells in the mammary fat pad and tumors were allowed to grow until they reached ˜50 mm^3. Mice were then injected intravenously with 100 μl of Folate-TLR7 conjugate (Compound 4) (50 nmole/kg) once/week. The control group received an equal volume of PBS on the same schedule. At the end of the treatment, metastasis in lung was evaluated in disease control and treatment group by co-culturing lung-digested cells with 6-thioguanine ([…]) in complete RPMI-1640 media for 10 days in petri plates. Metastatic colonies were visualized by fixing the plates with 5 mL of methanol followed by 5 mL deionized water wash and then stained with 0.03% methylene blue (see FIG. 15C). Total blue colonies from each plate were then counted.

4T1 solid tumor = 4T1 solid tumor model in mice; format: in vivo; details: BalB/c mice; for polarization of the macrophages from M2 to M1 phenotype in tumor: 4T1 solid tumors, flow cytometry; for tumor size: subcutaneous 4T1, intravenous, Compound 5 10 nmol/mouse, Compound 4 different concentrations
Procedure: In additional in vivo studies, 6-8 week old female BalB/c mice (Charles River Laboratories International, Inc., Wilmington, Mass.) were transferred upon arrival to a folic acid-deficient diet (TD.95247, Envigo Corporation, Indianapolis, Ind.). On day 14, mice were implanted subcutaneously with 5.0×10^4 of 4T1 cells and tumors were allowed to grow until they reach ˜50 mm^3. Mice were then injected intravenously with different concentrations of 100 μl of Folate-TLR7 conjugate Compounds 4 or 10 nmol/mouse of Compound 5). Control groups received 100 μl of 3% DMSO in PBS on the same schedule.
Tumor volume was concurrently measured with calipers using the formula (a×b^2)/2 (a being the largest and b being the smallest diameter of the tumor) (see FIGS. 10A, 10B, and 14). When desired, mice were sacrificed, and derived tumor fragments were dissociated using a human tumor dissociation kit. The resulting single cell suspensions were stained for antibodies and the samples were then analyzed by flow cytometry. Percentage of CD4 and CD8 T cell populations were tested in live cells isolated from 4T1 solid tumors in groups of untreated control and Folate-TLR7 conjugate treatment groups.

[6] = test system: human PBMC-derived M2 macrophages; experiment: Reprogramming of human PBMC-derived M2 macrophages by folate-TLR7 conjugates (qPCR, ELISA); format: cell-based; details: increased M1 markers
Procedure: To evaluate the efficacy of the releasable and non-releasable conjugates, freshly isolated PBMCs were plated with monocyte attachment medium at a seeding density of 1 million cells/cm^2. This was incubated for about 2 hours at 5% CO2 and 37° C. in the incubator. Non-adherent cells were removed, and the monocytes were washed three times with warm monocyte attachment medium. The monocytes were cultured in folate deficient RPMI 1640 medium. This was differentiated into unpolarized macrophages by incubating with fresh RPMI medium containing 20 ng/mL of M-CSF supplemented with 1% penicillin streptomycin (Invitrogen, Carlsbad, Calif.) and 10% FBS.
After 3 days, the medium was replaced with fresh RPMI medium containing 20 ng/mL of M-CSF. […]
qPCR analyses were performed using the iTaq™ Universal SYBR Green SuperMix (Bio-Rad Laboratories, Inc., Hercules, Calif.; #1725121), iCycler thermocycler, and iCycler iQ 3.0 software (Bio-Rad Laboratories Inc., Hercules, Calif.) to track the expression of markers characteristic of macrophage polarization states. […] Each sample was analyzed independently in triplicate for each marker. IL-6, CXCL-10 and TNF-α protein expression in the cell culture supernatants were calculated using the commercially available ELISA kits (Biolegend, San Diego, Calif.).

## CCCCc1nc2c(N)nc3ccccc3c2n1CC(C)(C)CO [Compound 1, 3-(4-amino-2-butyl-1H-imidazo[4,5-c]quinolin-1-yl)-2,2-dimethylpropan-1-ol]
[1]
  systemic cytokine release (plasma IL-6, TNF-α): stimulated
[2]
  induction of interleukin-6 (IL-6): more efficiently
  induction of C-X-C motif chemokine ligand 10 (CXCL-10): more efficiently
  polarization of M2 macrophages to M1 macrophages: polarize the M2 macrophages to M1 macrophages
[3]
  expression of IL-6 in PBMCs: increased
[4]; supernatant ELISA, FIG. 4A
  M1 marker IL-6: increase
[4]; supernatant ELISA, FIG. 4B
  M1 marker TNF-α: increase
[4]; varying concentrations, FIGS. 4A and 4B
  polarization of macrophages from M2 to M1 phenotype: efficiently polarized

## CCCCc1nc2c(N)nc3ccccc3c2n1CC(C)(C)CN [Compound 2, 1-(3-amino-2,2-dimethylpropyl)-2-butyl-1H-imidazo[4,5-c]quinolin-4-amine]
[2]
  induction of interleukin-6 (IL-6): more efficiently
  induction of C-X-C motif chemokine ligand 10 (CXCL-10): more efficiently
  polarization of M2 macrophages to M1 macrophages: polarize the M2 macrophages to M1 macrophages
[3]
  expression of IL-6 in PBMCs: increased

## CCCCc1nc2c(N)nc3ccccc3c2n1CC(C)(C)N [Compound 3, 1-(2-amino-2-methylpropyl)-2-butyl-1H-imidazo[4,5-c]quinolin-4-amine]
[2]
  induction of interleukin-6 (IL-6): more efficiently
  induction of C-X-C motif chemokine ligand 10 (CXCL-10): more efficiently
  polarization of M2 macrophages to M1 macrophages: polarize the M2 macrophages to M1 macrophages
[3]
  expression of IL-6 in PBMCs: increased

## CCCCc1nc2c(N)nc3ccccc3c2n1CC(C)(C)COCCOCCOCCOCCNC(=O)CC[C@H](NC(=O)c1ccc(NCc2cnc3nc(N)[nH]c(=O)c3n2)cc1)C(=O)O [Compound 4, (S)-1-(4-amino-2-butyl-1H-imidazo[4,5-c]quinolin-1-yl)-20-(4-(((2-amino-4-oxo-3,4-dihydropteridin-6-yl)methyl)amino)benzamido)-2,2-dimethyl-17-oxo-4,7,10,13-tetraoxa-16-azahenicosan-21-oic acid]
[5]; FIG. 12A
  M1 surface marker CD40: increased
[5]; FIG. 12B
  M1 surface marker CD80: increased
[5]; FIGS. 12A and 12B
  polarization of M2 macrophages to M1 macrophages: polarized the M2 macrophages to M1 macrophages
4T1 metastatic tumor; 6-thioguanine assay, FIG. 15B-C
  number of metastatic colonies (lung): significantly decreased
4T1 metastatic tumor; 4T1 in mammary fat pad, FIG. 15A
  volume of the tumor: significantly decreased
4T1 solid tumor
  polarization of the macrophages from M2 to M1 phenotype in tumor: shifted polarization of the macrophages from M2 to M1 phenotype
  tumor size: reduction
[6]; 3 hours or 3+45 hours, FIGS. 11A-11D
  polarization of M2 macrophages to M1 macrophages: polarized the M2 macrophages to M1 macrophages

## CCCCc1nc2c(N)nc3ccccc3c2n1CC(C)(C)COC(=O)OCCSSC[C@H](NC(=O)CCOCCOCCOCCNC(=O)CC[C@H](NC(=O)c1ccc(NCc2cnc3nc(N)[nH]c(=O)c3n2)cc1)C(=O)O)C(=O)O [Compound 5]
4T1 solid tumor
  polarization of the macrophages from M2 to M1 phenotype in tumor: shifted polarization of the macrophages from M2 to M1 phenotype
  tumor size: reduction
[6]; 3+45 hours, FIG. 9
  polarization of M2 macrophages to M1 macrophages: polarized the M2 macrophages to M1 macrophages

— patent publication US20230248835A1, “COMPOUNDS, COMPOSITIONS, AND METHODS FOR THE TREATMENT OF FIBROTIC DISEASES AND CANCER” (Purdue Research Foundation, priority 2020, published 2023)
